Reference: patent US10745397B2, “1-Substituted 1,2,3,4-tetrahydro-1,7-naphthyridin-8-amine derivatives and their use as EP4 receptor antagonists” (TAKEDA PHARMACEUTICAL COMPANY LIMITED, priority 2015, dated 2020)

What was measured:
[1] = molecular target: T1, human EP4 receptor (Homo sapiens, UniProt P35408); assay: hEP4 radioligand binding assay ([3H] PGE2 competitive binding, membrane fractions); conditions: 300 nM compound; 1 nM [3H] PGE2
T1 construct: expressed in transfected cells; host or cells: FreeStyle293 (HEK293F) cells, transient transfection with pcDNA3.1(+), total membrane fraction
T1 sequence (P35408 whole entry): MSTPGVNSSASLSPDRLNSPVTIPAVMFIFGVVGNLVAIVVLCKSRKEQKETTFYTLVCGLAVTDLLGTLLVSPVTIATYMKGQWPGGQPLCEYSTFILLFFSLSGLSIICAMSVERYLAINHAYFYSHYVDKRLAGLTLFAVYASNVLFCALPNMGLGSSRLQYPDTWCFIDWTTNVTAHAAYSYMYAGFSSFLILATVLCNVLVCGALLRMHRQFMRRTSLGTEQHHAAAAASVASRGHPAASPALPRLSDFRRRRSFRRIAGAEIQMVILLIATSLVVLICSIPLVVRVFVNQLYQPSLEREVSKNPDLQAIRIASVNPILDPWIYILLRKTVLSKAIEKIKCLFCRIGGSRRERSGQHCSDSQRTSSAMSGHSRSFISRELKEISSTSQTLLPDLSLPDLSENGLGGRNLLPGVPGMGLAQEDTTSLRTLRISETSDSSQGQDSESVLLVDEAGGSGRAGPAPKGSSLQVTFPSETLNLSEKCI
From the text: The full-length coding sequences for human EP1 (NM_000955), human EP2 (NM_000956), human EP3 (NM_198717) and human EP4 (NM_000958) were cloned into pcDNA3.1(+) vector (Life Technologies, CA, USA). In order to prepare overexpressed EP 1-4 membrane in Freestyle293 cells (Life Technologies, CA, USA), the pcDNA3.1(+) vector encoding a cDNA of the relevant gene was transiently transfected into FreeStyle293 cells using 293Fectin (Life Technologies, CA, USA) according to the manufacturer instruction manual. After 2 days, cultured cells were centrifuged (1,000×g, 10 min, 4° C.) and pellets homogenized by a probe sonicator (Sonics vibracell, Sonics and Materials Inc., USA; 31% Amp, 5 sec pulse, Imin interval, 4 cycles) in ice-cold 50 mM Tris-HCl buffer (pH 7.5 at 25° C.) containing 0.5 mM EDTA, 250 mM Sucrose and 10 mM MgCl2. Cell homogenates were centrifuged (890×g, 10 min, 4° C.), and the supernatant was recovered. Total membrane fractions were isolated by ultracentrifugation (140,000×g, 60 min, 4° C.). Pellets were re-suspended in the same buffer, and stored at −80° C. until use. The protein concentration in homogenate was determined with the BCA Protein Assay Kit (Pierce Biotechnology, Inc., IL, USA) according to the manufacturer protocol.
The binding affinity of the compounds was evaluated using a competitive radioligand binding assay which measured the specific binding of [3H] PGE2 to the human EP4 receptor. Briefly, varying concentrations of NCEs were incubated with cell membrane fractions generated HEK293F cells transiently transfected with human EP4 receptor as described above. Each reaction consisted of 10 μg membrane protein and NCE in 50 mM Tris-HCl, pH-6.0 by NaOH, 10 mM MgCl2 and 0.5 mM EDTA assay buffer. Radioligand, [3H] PGE2 (American Radiochemicals Inc. Specific Activity 180 Ci/mmol), at a final of 1 nM was added to each reaction where the final assay volume was 200 μL and concentration of DMSO was adjusted to 1%. Appropriate controls included total binding in the assay (vehicle control) and control for non-specific binding. Non-specific binding was evaluated by incubating the hEP4 protein with 10 μM unlabeled PGE2 under the same assay conditions as NCEs. The reaction was incubated at room temperature for 2 hours and terminated by harvesting the reaction contents to a PEI coated GF/C filter plate (PerkinElmer). The plate was washed four times with cold 50 mM Tris-HCl, pH-7.5 wash buffer and dried at 50° C. for 2 hours or at 37° C. overnight. [3H] PGE2 bound to the protein was quantified by the addition of 25 μL of Microscint PS (PerkinElmer) and plate was read on MicroBeta2 liquid Scintillation and luminescence counter (PerkinElmer). Data was analyzed using GraphPad Prism 5 (GraphPad Software Inc., San Diego, Calif.) where non-specific binding was normalized to 0% specific binding of [3]PGE2 and vehicle control (DMSO) was normalized to 100% specific binding of [3]PGE2. Binding affinity of NCEs, Ki, was generated using One site—Fit Ki equation in GraphPad Prism 5.

[2] = molecular target: T2, hEP4 (C6 glioma cells overexpressing hEP4) (Homo sapiens, UniProt P35408); assay: hEP4 cell based assay (cAMP), inhibition of PGE2 induced cAMP, HTRF; conditions: 1 μM compound, PGE2 at EC80
T2 construct: host or cells: C6 glioma cells overexpressing hEP4
T2 sequence (P35408 whole entry): as above
Description: The functional assay for hEP4 activation and inhibition was carried out via the quantitative determination of agonist, PGE2, induced cAMP response using HTRF in a competitive immunoassay (Cisbio dynamic 2 kit). NCEs at varying concentrations were evaluated for inhibition of PGE2 induced increase in cAMP. Briefly, C6 glioma cells overexpressing hEP4 (Takeda) were cultured in DMEM (low glucose, pyruvate), 10% FBS (Gibco) and PenStep. The cells were harvested on the day of the assay, washed with HBSS+10 mM HEPES (pH 7.4)+0.1% BSA buffer and pre-incubated with varying concentrations of NCE. Each reaction contained 7000 cells and NCEs in HBSS+10 mM HEPES+0.1% BSA assay buffer along with PDE inhibitors IBMX and Ro 20-1724 (final concentration of each inhibitor […]). Following 15 min pre-incubation, the cells were treated with EC80 concentration of agonist PGE2 for 30 min to induce cAMP. Final volume of the assay was 6 μL and DMSO concentration was maintained at 1%. The reaction was terminated with the addition of cAMP labeled with the dye d2 in lysis buffer according to manufacturers' protocol. This was followed by the addition of the anti-cAMP antibody labeled with Cryptate according to the manufacturers' protocol. The reaction was incubated at room temperature in dark for 45 min and the plate was evaluated for fluorescence at 665 nm (FRET) and 620 nm (cryptate emission) on a Flexstation III microplate reader (Molecular Devices, Sunnyvale, Calif.) Ex max: 313 nm; Em1: 620 nm; Em2: 665 nm. Data was analyzed using GraphPad Prism 5 (GraphPad Software Inc., San Diego, Calif.) where cells treated with agonist (EC80) was normalized to 0% inhibition of hEP4 and cells treated with buffer (no agonist) was normalized to 100% inhibition of hEP4. IC50 of NCEs was generated using non-linear regression—Log(inhibitor) vs. response equation in GraphPad Prism 5.

SMILES	inhibition at 0.3 µM [1] [%]	inhibition at 1 µM [2] [%]
C[C@H](Nc1nccc2c1N(Cc1cccc(F)c1)CCO2)c1ccc(C(=O)O)cc1 [Example B8, 4-[(1S)-1-[[4-[(3-fluorophenyl)methyl]-2,3-dihydropyrido[4,3-b][1,4]oxazin-5-yl]amino]ethyl]benzoic acid]	97	100
C[C@H](Nc1nccc2c1N(Cc1ccc(F)cc1)CCO2)c1ccc(C(=O)O)cc1 [Example B9, 4-[(1S)-1-[[4-[(4-fluorophenyl)methyl]-2,3-dihydropyrido[4,3-b][1,4]oxazin-5-yl]amino]ethyl]benzoic acid]	97	100
Cc1cccc(CN2CCOc3ccnc(N[C@@H](C)c4ccc(C(=O)O)cc4)c32)c1 [Example B10, 4-[(1S)-1-[[4-(m-tolylmethyl)-2,3-dihydropyrido[4,3-b][1,4]oxazin-5-yl]amino]ethyl]benzoic acid]	97	100
Cc1ccc(CN2CCOc3ccnc(N[C@@H](C)c4ccc(C(=O)O)cc4)c32)cc1 [Example B11, 4-[(1S)-1-[[4-(p-tolylmethyl)-2,3-dihydropyrido[4,3-b][1,4]oxazin-5-yl]amino]ethyl]benzoic acid]	95	100
COc1cccc(CN2CCOc3ccnc(N[C@@H](C)c4ccc(C(=O)O)cc4)c32)c1 [Example B12, 4-[(1S)-1-[[4-[(3-methoxyphenyl)methyl]-2,3-dihydropyrido[4,3-b][1,4]oxazin-5-yl]amino]ethyl]benzoic acid]	98	100
C[C@H](Nc1nccc2c1N(Cc1cc(F)cc(F)c1)CCO2)c1ccc(C(=O)O)cc1 [Example B13, 4-[(1S)-1-[[4-[(3,5-difluorophenyl)methyl]-2,3-dihydropyrido[4,3-b][1,4]oxazin-5-yl]amino]ethyl]benzoic acid]	92	100
C[C@H](Nc1nccc2c1N(Cc1cccc(C(F)(F)F)c1)CCO2)c1ccc(C(=O)O)cc1 [Example B14, 4-[(1S)-1-[[4-[[3-(trifluoromethyl)phenyl]methyl]-2,3-dihydropyrido[4,3-b][1,4]oxazin-5-yl]amino]ethyl]benzoic acid]	93	100
COc1ccc(CN2CCOc3ccnc(N[C@@H](C)c4ccc(C(=O)O)cc4)c32)cc1 [Example B15, 4-[(1S)-1-[[4-[(4-methoxyphenyl)methyl]-2,3-dihydropyrido[4,3-b][1,4]oxazin-5-yl]amino]ethyl]benzoic acid]	98	99
O=C(O)c1ccc(C2(Nc3nccc4c3N(Cc3cccc(F)c3)CCO4)CC2)cc1 [Example B16, 4-[1-[[4-[(3-fluorophenyl)methyl]-2,3-dihydropyrido[4,3-b][1,4]oxazin-5-yl]amino]cyclopropyl]benzoic acid]	93	88
O=C(O)c1ccc(C2(Nc3nccc4c3N(Cc3cc(F)cc(F)c3)CCO4)CC2)cc1 [Example B17, 4-[1-[[4-[(3,5-difluorophenyl)methyl]-2,3-dihydropyrido[4,3-b][1,4]oxazin-5-yl]amino]cyclopropyl]benzoic acid]	96	86
O=C(O)c1ccc(C2(Nc3nccc4c3N(Cc3ccc(F)cc3)CCO4)CC2)cc1 [Example B18, 4-[1-[[4-[(4-fluorophenyl)methyl]-2,3-dihydropyrido[4,3-b][1,4]oxazin-5-yl]amino]cyclopropyl]benzoic acid]	93	79
O=C(O)c1ccc(C2(Nc3nccc4c3N(Cc3ccc(Cl)cc3)CCO4)CC2)cc1 [Example B19, 4-[1-[[4-[(4-chlorophenyl)methyl]-2,3-dihydropyrido[4,3-b][1,4]oxazin-5-yl]amino]cyclopropyl]benzoic acid]	92	81
O=C(O)c1ccc(C2(Nc3nccc4c3N(Cc3ccc(C(F)(F)F)cc3)CCO4)CC2)cc1 [Example B20, 4-[1-[[4-[[4-(trifluoromethyl)phenyl]methyl]-2,3-dihydropyrido[4,3-b][1,4]oxazin-5-yl]amino]cyclopropyl]benzoic acid]	92	92
COc1ccc(CN2CCOc3ccnc(NC4(c5ccc(C(=O)O)cc5)CC4)c32)cc1 [Example B21, 4-[1-[[4-[(4-methoxyphenyl)methyl]-2,3-dihydropyrido[4,3-b][1,4]oxazin-5-yl]amino]cyclopropyl]benzoic acid]	87	87
O=C(O)c1ccc(C2(Nc3nccc4c3N(Cc3ccccc3)CCO4)CC2)cc1 [Example B22, 4-[1-[(4-benzyl-2,3-dihydropyrido[4,3-b][1,4]oxazin-5-yl)amino]cyclopropyl]benzoic acid]	80	90
COc1cccc(CN2CCOc3ccnc(NC4(c5ccc(C(=O)O)cc5)CC4)c32)c1 [Example B23, 4-[1-[[4-[(3-methoxyphenyl)methyl]-2,3-dihydropyrido[4,3-b][1,4]oxazin-5-yl]amino]cyclopropyl]benzoic acid]	100	74
O=C(O)c1ccc(C2(Nc3nccc4c3N(Cc3cccc(Cl)c3)CCO4)CC2)cc1 [Example B24, 4-[1-[[4-[(3-chlorophenyl)methyl]-2,3-dihydropyrido[4,3-b][1,4]oxazin-5-yl]amino]cyclopropyl]benzoic acid acid]	100	71
Cc1cccc(CN2CCOc3ccnc(NC4(c5ccc(C(=O)O)cc5)CC4)c32)c1 [Example B25, 4-[1-[[4-(m-tolylmethyl)-2,3-dihydropyrido[4,3-b][1,4]oxazin-5-yl]amino]cyclopropyl]benzoic acid]	98	79
Cc1ccc(CN2CCOc3ccnc(NC4(c5ccc(C(=O)O)cc5)CC4)c32)cc1 [Example B26, 4-[1-[[4-(p-tolylmethyl)-2,3-dihydropyrido[4,3-b][1,4]oxazin-5-yl]amino]cyclopropyl]benzoic acid]	93	87
C[C@H](Nc1nccc2c1N(Cc1ccc3ccccc3c1)CCO2)c1ccc(C(=O)O)cc1 [Example B29, 4-[(1S)-1-[[4-(2-naphthylmethyl)-2,3-dihydropyrido[4,3-b][1,4]oxazin-5-yl]amino]ethyl]benzoic acid]	100	96
